# Values quoted from earlier work, collected in patent US20110028498A1, “METHOD FOR EVALUATING PATIENTS FOR TREATMENT WITH DRUGS TARGETING RET RECEPTOR TYROSINE KINASE” (priority 2006, published 2011).
# Test system: RET-dependent thyroid tumour cell growth
# Details: in vitro, literature
compound,measurement,value
"COc1cc2c(Nc3ccc(Br)cc3F)ncnc2cc1OCC1CCN(C)CC1 [vandetanib, 4-(4-bromo-2-fluoroanilino)-6-methoxy-7-(1-methylpiperidin-4-ylmethoxy)quinazoline]",growth-inhibitory effect on RET-dependent thyroid tumour cell growth,strong growth-inhibitory effect
